Data reported in US20220170028A1, “NOVEL INTERLEUKIN-2 VARIANTS AND BIFUNCTIONAL FUSION MOLECULES THEREOF” (Cugene Inc, priority 2019, published 2022).
Entries after “also recorded” stand apart in the source; their conditions may differ.

Key:
Treg cells [1] = experiment: Treg proliferation and expansion in mice after a single s.c. injection of bifunctional constructs (Example 17); assay type: in vivo, mouse; details: 15 nmol/kg single s.c.; for potency in inducing Treg cell proliferation and expansion in vivo (in words): C57/BL6 mice
Experimental: (§1) IL-2 variant tocilizumab bifunctional proteins P-0536, P-0546, P-0559, and P-0560 along with IL-2 variant Fc fusion protein P-0511 were administered to mice, and their ability to preferentially proliferate and expand regulatory T cells (CD4+CD25+FoxP3+ T cells) over effector T cells and NK cells were determined in vivo.
(§2) Female C57/BL6 mice (7-week old) were received from Charles River Laboratory and acclimated in house for at least 7 days before the study. Vehicle (PBS) and 15 nmol/kg each test compounds were subcutaneously administered to mice on day 0. Peripheral blood samples were collected into heparin-treated tubes on days 2, 4 and 8 post-treatment. Each group contained 5 mice and baseline blood was collected 3 days prior to the treatment (day −3).

[2] = system: CD4+ Tconv, activated CD4+ T, CD8+ T and NK cells; experiment: Effector T cell and NK cell proliferation and expansion in mice, bifunctional constructs (Example 17); assay type: in vivo, mouse; details: 15 nmol/kg single s.c.
Experimental: as §1, §2

NK cells [3] = experiment: Ki67 expression on NK cells, human PBMC, flow cytometry; assay type: cell-based
Source text: (§3) Exemplary IL-2 variant Fc fusion protein P-0573 was further characterized for induction of Ki-67 expression by flow cytometry.

CD8+ T cells [4] = experiment: Ki67 expression on CD8+ T cells, human PBMC, flow cytometry; assay type: cell-based
Source text: as §3

[5] = system: CD4+ Treg vs CD4+ Tconv cells; experiment: STAT5 phosphorylation, selectivity / activity profile Treg versus CD4+ Tconv cells, human PBMC; assay type: cell-based
Outline: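 Fresh human PBMC from a healthy donor, serum-starved 1 h at 4 °C, then exposed to serial dilutions of IL-2 variants for 30 min at 37 °C. After fixation/permeabilization, cells stained for CD4, CD25, FOXP3 and pSTAT5 and analysed by flow cytometry. Treg (CD4+/Foxp3+/CD25high) and Tconv (CD4+/Foxp3−/CD25low) gated; read-out is percent pSTAT5-positive cells.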

Treg cells [6] = experiment: Treg proliferation and expansion in mice after a single subcutaneous injection (Example 9); assay type: in vivo, mouse; details: 0.3 mg/kg single s.c., C57/BL6 mice
Experimental: (§4) IL-2 variant Fc fusion proteins were administered to mice and their ability to preferentially proliferate and expand regulatory T cells (CD4+CD25+FoxP3+ T cells) over effector T cells and NK cells were determined in vivo.
(§5) Female C57/BL6 mice (7-week old) were received from Charles River Laboratory and acclimated in house for at least 7 days before the study. Vehicle (PBS), 0.3 mg/kg of each test compounds, or IL-2 benchmark compounds were subcutaneously administered to mice on day 0. Peripheral blood samples were collected into heparin-treated tubes on days 3, 5 and 7 post-treatment. Each group contained 6 mice and baseline blood was collected 2 days prior to the treatment (day −2). After red blood cell lysis, total viable mononuclear blood cells were counted by trypan blue dead cell exclusion method and proceeded to intracellular staining for immune cell phenotype and Ki67 proliferation markers using flow cytometric analysis. Cells were stained separately with two panels of antibodies as listed: 1) anti-mouse Foxp3-FITC, Ki67-PE, anti-mouse CD25-APC and anti-mouse CD4-Percpcy5.5 (1:50 dilution) for CD4+T-regulatory cells (Treg); 2) anti-mouse CD3-FITC, Ki67-PE, anti-mouse CD335-APC and anti-mouse CD8-Percpcy5.5 (1:50 dilution) for CD8+T and NK cells.

Treg cells [7] = experiment: Treg pharmacodynamics in mice after repeated administration Q3D (Example 11); assay type: in vivo, mouse; details: 0.3 mg/kg s.c.
Experimental: Female Balb/C mice (7-week old) were acclimated in house for 5-7 days before the study. Vehicle (PBS), 0.3 mg/kg of P-0511, P-0512, P-0531, or Benchmark-1 compound were subcutaneously administered to mice (n=5/group) on days 0, 3, and 6. On days 3 and 9, three days after the first injection and multiple (3) injections, respectively, peripheral blood was collected. Based on earlier in vivo experiments, Treg cell activation, proliferation, and expansion were expected to peak on day 3, and thus three days post injection was selected for data collection and analysis. Changes in blood lymphocyte activation, proliferation, and expansion were measured by flow cytometry. P-0531 is the S125I equivalent of the wild type IL-2 fusion protein. The Benchmark-1 contains V91K mutation.

NK cells [8] = experiment: NK cell proliferation, CFSE dilution, human PBMC; assay type: cell-based; details: 5 or 7 days incubation
Experimental: (§6) Further, P-0511 and P-0512 were tested for their ability to stimulate NK and CD8+ T cells proliferation in comparison with the wild type and benchmark molecules. Intracellular fluorescent label carboxyfluorescein diacetate succinimidyl ester (CFSE) method was utilized. Briefly, human PBMC (1×10^5 cells/well) were labeled with CFSE, plated onto 96-well plates, and incubated with increasing concentrations of different IL-2 compounds. Cells were then harvested after 5 or 7 days of incubation and stained with either anti-CD56-APC antibody for NK cells or anti-CD8-APC antibody for CD8+ T cells; and analyzed by flow cytometry. Data are expressed as a percent of divided cells and illustrated in FIG. 10A for CD8+ T cell proliferation and FIG. 10B for NK cell proliferation.

[9] = system: CD4+ Tconv cells, CD8 T cells and NK cells; experiment: Effector T cell and NK cell proliferation and expansion in mice after a single subcutaneous injection (Example 9); assay type: in vivo, mouse; details: 0.3 mg/kg single s.c., C57/BL6 mice
Experimental: as §4, §5

[10] = system: CD4+/Foxp3+/CD25+ Treg, CD4+/Foxp3-/CD25+ Teff and CD4+/Foxp3-/CD25- naive T cells; experiment: STAT5 phosphorylation in three CD4+ T cell subsets (Treg, CD4 effector, CD4 naive), human PBMC; assay type: cell-based
Source text: In addition to being assessed for their ability to differentially stimulate Stat5 phosphorylation in CD4 positive Treg (CD4+/Foxp3+/CD25^high) versus Tconv (CD4+/Foxp3−/CD25^low) cells, two variants, P-0511 and P-0512, were further assayed for their ability to stimulate other effector T and NK cells, including CD4 positive Teff (CD4+/Foxp3-/CD25+), CD8 cytotoxic T effector and NK cells in comparison to wild-type IL-2 (P-0250) and three IL-2 benchmark molecules containing V91K, N88R, N88D respectively.
After human PBMC Cells were treated with serial dilutions of test compounds, fixed and permeabilized, washed, and stained with a mixture of anti-CD25-PE, anti-FOXP3-APC, anti-pSTAT5-FITC, and anti-CD4-PerCP-Cy5.5 antibodies, the flow cytometry analysis was gated into CD4+/Foxp3+/CD25+, CD4+/Foxp3−/CD25+, CD4+/Foxp3−/CD25− groups for the Treg, CD4 effector, and CD4 naive T cell subsets, respectively. Data are expressed as a percent of pStat5 positive cells in gated population and illustrated in FIG. 9.

CD8+ T cells [11] = experiment: CD8+ T cell proliferation, CFSE dilution, human PBMC; assay type: cell-based; details: 5 or 7 days incubation
Experimental: as §6

CD4+ T cells = experiment: Ki67 expression on CD4+ T cells, human PBMC, flow cytometry; assay type: cell-based
Source text: as §3

Substance	Treg/Tconv ratio (Ki67 stimulation, cell counts) (Treg cells [1])	expression of CD25 and Foxp3 on Treg cells (Treg cells [1])	potency in inducing Treg cell proliferation and expansion in vivo (in words) (Treg cells [1])	change of the activated CD4+ T cells [2]	induction of Ki67 expression in NK cells (NK cells [3])	induction of Ki67 expression in CD8+ T cells (CD8+ T cells [4])	other results
P-0546: Tocilizumab IL-2 L19H/S125I/Q126E monovalent fusion, SEQ ID NOs 253 + 254 + 256	most beneficial Treg/Tconv ratio	highest expression of CD25	highest potency	slight increase			
Benchmark-4: benchmark Fc-IL-2 fusion with IL-2Rα-disrupting triple mutations F42A/Y45A/L72G, SEQ ID NO: 250 [reference compound]					equally effective	equally effective	
P-0560: Tocilizumab IL-2 D20Q/S125I monovalent fusion, SEQ ID NOs 253 + 254 + 266	most beneficial Treg/Tconv ratio	highest expression of CD25	highest potency	slight increase			activity profile / selectivity window Treg over CD4+ Tconv (in words) [5]: selective activation of Treg cells over CD4+ Tconv cells
P-0512: IL-2 L19H/S125I/Q126K Fc fusion, SEQ ID NO: 214							Treg/Tconv ratio (Ki67 stimulation and cell counts) (Treg cells [6]; all measured time points): most beneficial Treg/Tconv ratio; stimulation of Treg cell proliferation and expansion in vivo (in words) (Treg cells [6]; days 3, 5, 7): stronger in vivo efficacy; % Treg over total CD4 T cells or over total lymphocytes (Treg cells [7]; after three consecutive Q3D treatments): sustained at significantly high levels; Treg cell counts, fold changes relative to PBS and Treg/Tconv ratio (Treg cells [7]; repeated dosing Q3D): superior capabilities to sustain Treg pool and maintain Treg selectivity; potency in stimulating NK cell proliferation (in words) (NK cells [8]): comparable activity profile to Benchmark-1; Ki67 stimulation on CD8 T cells and NK cells in vivo (in words) [9]: mild Ki67 stimulation; expansion of CD4+ Tconv cells, CD8 T cells or NK cells in vivo [9]: No significant expansion; Treg Selectivity ([5]; Isoleucine-125 constructs): Yes; pSTAT5 activity profile in Treg, Teff and naive CD4 T cell subsets (in words) [10]: comparable activity profile to Benchmark-1; potency in stimulating CD8+ T cell proliferation (in words) (CD8+ T cells [11]): comparable activity profile to Benchmark-1
P-0573: IL-2 R38A/P65G/S125I Fc fusion, SEQ ID NO: 247					equally effective	equally effective	induction of Ki67 expression in CD4+ T cells (CD4+ T cells): substantially reduced potency; also recorded: higher potency than Benchmark-4
